For data set [1], the target named is T1, ASH1LPHD (Homo sapiens, UniProt Q9NR48).
T1 construct: ASH1LPHD (aa 2579-2629); GST (N, cleaved yes); made in house; host or cells: E. coli BL21 or Rosetta2 (DE3) pLysS
In words: Tryptophan fluorescence binding, WT ASH1LPHD. The source says:
Human ASH1L constructs ASH1LPHD (aa 2579-2629), ASH1LBD (aa 2430-2564) and ASH1LPHD-BAH (aa 2579- 2794 and 2579-2834), ASH1LBD-PHD (aa 2430-2629) were cloned into pDEST15 vector with a TEV or Precission cleavage site. ASH1LBD-PHD-BAH (aa 2436-2833), ASH1LSET-BD-PHD (aa 2074-2629) and ASH1LSET-BD-PHD-BAH (aa 2069-2834) were in pGEX6P-1 and pMOCR vectors. Mutants of Ash1LPHD and Ash1LBD were generated following Quikchange mutagenesis protocols. Each construct was expressed in BL21 or Rosetta2 (DE3) pLysS cells in LB or minimal media supplemented with ^15NH4Cl (and ZnCl2 for PHD finger-containing constructs). Cultures were induced with 0.5 mM IPTG and grown for 18 h at 16 °C. After harvesting, the GST-tagged proteins were purified using glutathione agarose (Thermo Scientific) in 20 mM Tris pH 7.5, 150-500 mM NaCl, 5 mM MgCl2 and 2 mM DTT. For experiments requiring GST-tagged constructs, the proteins were eluted in a buffer containing 20 mM Tris pH 7.5, 150-500 mM NaCl, 5 mM MgCl2, 50 mM reduced glutathione and 2 mM DTT. For crystallography and biochemical assays, the GST tag was cleaved overnight at 4 °C with TEV or PreScission protease, and proteins were further purified by size exclusion chromatography (SEC). Protein fractions were checked for purity by SDS-PAGE and concentrated in a concentrator (Millipore).
(§1) Fluorescence spectra were collected at 25 °C on a Fluoromax-3 and Fluoromax-4 plus C spectrofluorometers (HORIBA). […] Emission spectra were recorded between 320 and 360 nm with a 0.5 nm step size and a 0.5 s integration time. The Kd values were determined using a nonlinear least-squares analysis and the equation:3 ΔI=ΔImax((L+P+Kd)−L+P+Kd^2−4[P][L])/2[P] where [L] is concentration of the peptide, [P] is concentration of the protein, ΔI is the observed change of signal intensity, and ΔImax is the difference in signal intensity of the free and bound states of the protein. The Kd values were averaged over three independent experiments with error calculated as the standard deviation between the runs.

In data set [2] the target is T2, ASH1LPHD D2595A (Homo sapiens, UniProt Q9NR48, D2595A).
T2 construct: ASH1LPHD (aa 2579-2629); GST (N, cleaved yes); made in house; host or cells: E. coli BL21 or Rosetta2 (DE3) pLysS
Nature of the data set: Tryptophan fluorescence binding, ASH1LPHD D2595A. Particulars: 25 °C, pH 7.5, mean ± S.D., three independent experiments.
Source text: (§2) Human ASH1L constructs ASH1LPHD (aa 2579-2629), ASH1LBD (aa 2430-2564) and ASH1LPHD-BAH (aa 2579- 2794 and 2579-2834), ASH1LBD-PHD (aa 2430-2629) were cloned into pDEST15 vector with a TEV or Precission cleavage site. ASH1LBD-PHD-BAH (aa 2436-2833), ASH1LSET-BD-PHD (aa 2074-2629) and ASH1LSET-BD-PHD-BAH (aa 2069-2834) were in pGEX6P-1 and pMOCR vectors. Mutants of Ash1LPHD and Ash1LBD were generated following Quikchange mutagenesis protocols. Each construct was expressed in BL21 or Rosetta2 (DE3) pLysS cells in LB or minimal media supplemented with ^15NH4Cl (and ZnCl2 for PHD finger-containing constructs). Cultures were induced with 0.5 mM IPTG and grown for 18 h at 16 °C. […]
as §1

Data set [3] concerns the target T3, ASH1LPHD-BAH (Homo sapiens, UniProt Q9NR48).
T3 construct: ASH1LPHD-BAH (aa 2579- 2794 and 2579-2834); GST (N, cleaved yes); made in house; host or cells: E. coli BL21 or Rosetta2 (DE3) pLysS
Nature of the data set: Tryptophan fluorescence binding, ASH1LPHD-BAH. The conditions noted are these: 25 °C, pH 7.5, mean ± S.D., three independent experiments.
Source text: as §2, §1

Data set [4] addresses T4, ASH1LPHD D2584A (Homo sapiens, UniProt Q9NR48, D2584A).
T4 construct: ASH1LPHD (aa 2579-2629); GST (N, cleaved yes); made in house; host or cells: E. coli BL21 or Rosetta2 (DE3) pLysS
Nature of the data set: Tryptophan fluorescence binding, ASH1LPHD D2584A. Particulars: 25 °C, pH 7.5, mean ± S.D., three independent experiments.
Source text: as §2, §1

In data set [5] the target is T5, ASH1LPHD Q2601K (Homo sapiens, UniProt Q9NR48, Q2601K).
T5 construct: ASH1LPHD (aa 2579-2629); GST (N, cleaved yes); made in house; host or cells: E. coli BL21 or Rosetta2 (DE3) pLysS
Nature of the data set: Tryptophan fluorescence binding, ASH1LPHD Q2601K. The conditions noted are these: 25 °C, pH 7.5, mean ± S.D., three independent experiments.
Source text: as §2, §1

Data set [6] deals with H3K4me3-NCP. In kind it is binding. Particulars: EMSA; 0.025 µM nucleosome, increasing protein, pH 7.5, on ice 5 min.
In data set [7] the test system is H3K4me3-NCP. Nature of the data set: Liquid HMT assay of GST-ASH1LSET-BD-PHD on H3K4me3-nucleosomes. In kind it is biochemical. Particulars: D2595K mutant compared to WT ASH1LSET-BD-PHD on H3K4me3-NCP; presence or absence of MRG15; 3H-SAM, 60 min at 30 °C, pH 8. As for the experimental part: Fig. 6 Binding of ASH1LPHD to H3K4me3 inhibits enzymatic activity of ASH1L. a Overlay of ^1H,^15N HSQC spectra of ASH1LBD in the absence (black) or presence of the indicated molar ratios of ASH1LSET. b Overlay of ^1H,^15N HSQC spectra of ASH1LPHD in the absence (black) or presence (blue) of ASH1LSET. c Liquid histone methyltransferase (HMT) assays of GST-ASH1LSET-BD-PHD-BAH on recombinant nucleosomes carrying H3K4me3 or unmodified NCP. GST-ASH1LSET-BD-PHD-BAH was pre-incubated with substrate and MRG15 (or BSA) prior addition of ^3H S-adenosyl methionine. GST, control. […] Live cells were counted over a 6-day time course. […]
Recombinant ASH1L (WT and mutant) constructs, tagged at the N-terminus with GST and at the C-terminus with 6XHis, were generated and purified using Sepharose beads and Ni-NTA beads. […] Methyltransferase activity of the proteins was measured with 0.5 μCi of ^3H labeled S-adenosyl methionine (18 Ci/mmol; PerkinElmer Life Sciences). […] The reactions were captured on P81 filter paper, the free ^3H-labeled SAM was washed away, and the paper was analyzed by Liquid Scintillation.

The target in data set [8] is T1, ASH1LPHD. Nature of the data set: NMR titration (1H,15N HSQC), WT ASH1LPHD. In kind it is binding. Particulars: unlabeled ASH1LSET titrated into 15N-labeled ASH1LPHD.
Source text: as §2, with “°C. After harvesting, the GST-tagged proteins were purified using glutathione agarose (Thermo Scientific) in 20 mM Tris pH 7.5, 150-500 mM NaCl, 5 mM MgCl2 and 2 mM DTT.” for “°C.”
(§3) NMR experiments were performed at 298 K on Varian 600 MHz and 900 MHZ spectrometers equipped with a cryogenic probe. Chemical shift perturbation experiments were carried out using 0.1–0.2 mM uniformly ^15N-labeled wild type or mutant proteins in 25 mM Tris pH 7.5 buffer, supplemented with 150 mM NaCl, 5 mM DTT and 5-7% D2O. ^1H,^15N heteronuclear single quantum coherence (HSQC) or transverse relaxation optimized spectroscopy (TROSY) spectra were recorded in the absence and presence of increasing concentrations of ligands. […]

Data set [9] relates to ASH1LBD. Nature of the data set: NMR titration (1H,15N HSQC), ASH1LBD. In kind it is binding, Human. Particulars: unlabeled ASH1LSET titrated into 15N-labeled ASH1LBD.
Source text: as §2, with “°C. After harvesting, the GST-tagged proteins were purified using glutathione agarose (Thermo Scientific) in 20 mM Tris pH 7.5, 150-500 mM NaCl, 5 mM MgCl2 and 2 mM DTT.” for “°C.”
as §3

[10] abbreviates: WT, summary of tryptophan fluorescence and MST, di- and trimethylated peptides, read-out: binding affinity.

The values below come from paper PMC11883000, “Structure-function relationship of ASH1L and histone H3K36 and H3K4 methylation” (Nature Communications, 2025).

Where two headings read alike, the source gives them in different places.

For the compound `C[C@H](N)C(=O)N[C@@H](CCCNC(=N)N)C(=O)N[C@H](C(=O)N[C@@H](CCCCN(C)C)C(=O)N[C@@H](CCC(N)=O)C(=O)N[C@H](C(=O)N[C@@H](C)C(=O)N[C@@H](CCCNC(=N)N)C(=O)N[C@@H](CCCCN)C(=O)N[C@@H](CO)C(=O)N[C@H](C(=O)NCC(=O)O)[C@@H](C)O)[C@@H](C)O)[C@@H](C)O` [H3K4me2], the Kd in data set [1] (setting [10]) was 1000 to 2000 nM; in [1] (tryptophan fluorescence, H3 aa 1-12, excitation 295 nm, emission 320-360 nm, 25 °C, 0.5–2 μM protein, 20–25 mM Tris pH 7.5, 150 mM NaCl, 3 mM DTT, mean ± S.D., three independent experiments, read-out: Kd), 1000 ± 400 nM.
For `C[C@H](N)C(=O)N[C@@H](CCCNC(=N)N)C(=O)N[C@H](C(=O)N[C@@H](CCCC[N+](C)(C)C)C(=O)N[C@@H](CCC(N)=O)C(=O)N[C@H](C(=O)N[C@@H](C)C(=O)N[C@@H](CCCNC(=N)N)C(=O)N[C@@H](CCCCN)C(=O)N[C@@H](CO)C(=O)N[C@H](C(=O)NCC(=O)O)[C@@H](C)O)[C@@H](C)O)[C@@H](C)O` [H3K4me3], the Kd in data set [2] was 5000 to 7000 nM; in [3] it was 1000 ± 400 nM; in data set [4], 5000 to 7000 nM; in data set [1] (setting [10]), 1000 to 2000 nM; in [5] it was 1000 ± 300 nM.
As for “ASH1LPHD: Human ASH1L PHD finger (aa 2579-2629) (HEKDDDVIRCICGLYKDEGLMIQCDKCMVWQHCDCMGVNSDVEHYLCEQCD; left off: GST, end not stated, cleaved)”, the “binding to H3K4me3-NCP” value in [6] is “incapable”.
As to “ASH1LSET-BD-PHD D2595K mutant: D2595K mutant of ASH1LSET-BD-PHD (aa 2074-2629)”, the methyltransferase activity result in data set [7] is on record as “increase in the methyltransferase activity”.
For the compound “ASH1LSET: isolated unlabeled ASH1LSET domain”, in data set [8], the “interaction of ASH1LSET with ASH1LPHD (CSPs)” value is “does not interact with ASH1LPHD”. Besides, the “interaction of ASH1LSET with ASH1LBD (CSPs)” value in data set [9] is on record as “direct contact with ASH1LBD”.
